In article PMC6923765, “Structural Design, Synthesis, and Preliminary Biological Evaluation of Novel Dihomooxacalix[4]arene-Based Anti-tumor Agents” (Frontiers in Chemistry, 2019):

Key:
[1] = tested on: A549 cells (human lung carcinoma cells); experiment: SRB cytotoxicity assay, A549 cells; assay type: cell-based; details: 72 h, SRB; for IC50: read-out: IC50 (μM) A549
Description: (§1) A549 cells (human lung carcinoma cells), MCF-7 cells (human breast cancer cells), HeLa cells (human cervical cancer cells), HepG2 cells (human hepatocellular carcinoma cells), and HUVEC cells (human umbilical vein endothelial cells) were kindly provided by WeiFang Caleb Pharmaceuticals, Inc. A549 cells were cultured in Ham's F12K medium containing 10% fetal bovine serum, 2 mM L-glutamine, and 1.5 g/L sodium bicarbonate; MCF-7 cells were cultured on cell culture flask using RPMI 1640 medium with 2 mM L-glutamine adjusted to contain 1.5 g/L sodium bicarbonate, 4.5 g/L glucose, 10 mM HEPES, 1.0 mM sodium pyruvate, and 10% fetal bovine serum. Hela cells were cultured on Cell culture flask using 2 mM L-glutamine adjusted to contain 1.5 g/L sodium bicarbonate, 4.5 g/L glucose, 10 mM HEPES, and 1.0 mM sodium pyruvate in RPMI 1640 medium supplemented with 0.5 mg/ml G418 and 10% fetal bovine serum. HepG2 cells were cultured in minimum essential medium (Eagle) with 2 mM L-glutamine, Earle's BSS, 1.5 g/L sodium bicarbonate, 0.1 mM non-essential amino acids, 1.0 mM sodium pyruvate, and 10% fetal bovine serum. HUVEC cells were cultured in M199 medium containing 2 mM L-glutamine adjusted to contain 1.5 g/L sodium bicarbonate, 4.5 g/L glucose, 10 mM HEPES, 1.0 mM sodium pyruvate, ECGS, and 10% fetal bovine serum. All cells were cultured at 37°C in 5% CO2.
(§2) The cell proliferation of adherent cells was determined by sulforhodamine B assay (SRB) (Quan et al., [2009]; Li et al., [2017]). All cells were cultured in culture medium containing 10% fetal bovine serum and have been in the logarithmic growth phase. All cell types were seeded in a 96-well culture plate at a concentration of 1–5 × 10^4 cells per well at 37°C in a 5% CO2 incubator for 24 h. The cells were then exposed to seven drug concentrations of dihomooxacalix[4]arene derivatives for 72 h with each concentration located in three wells. Then, the cells were fixed with trichloroacetic acid (TCA). After washing, SRB working solution was added to the cells to […]. SRB combined with protein was dissolved in Tris base. OD values were measured for each well with a SPECTRA max 190 Cell microplate reader under 540 nm wavelength. According to the OD value, the cell growth inhibition rate was calculated.

[2] = tested on: MCF-7 cells (human breast cancer cells); experiment: SRB cytotoxicity assay, MCF-7 cells; assay type: cell-based; details: SRB; for inhibition at 10 µM: MCF7, 10 μM, 72 h; for IC50: MCF7, 72 h, read-out: IC50 (μM) MCF-7
Description: as §1, §2

[3] = tested on: HeLa cells (human cervical cancer cells); experiment: SRB cytotoxicity assay, HeLa cells; assay type: cell-based; details: 72 h, SRB; for IC50: read-out: IC50 (μM) HeLa
Description: as §1, §2

[4] = tested on: HepG2 cells (human hepatocellular carcinoma cells); experiment: SRB cytotoxicity assay, HepG2 cells; assay type: cell-based; details: 72 h, SRB; for IC50: read-out: IC50 (μM) HepG2
Description: as §1, §2

[5] = tested on: HUVEC cells (human umbilical vein endothelial cells); experiment: SRB cytotoxicity assay, HUVEC normal cells; assay type: cell-based; details: Homo sapiens, HUVEC, 72 h, 10 μM, SRB; toxicity to normal cells
Description: as §1, §2

MCF-7 cells [6] = experiment: Flow cytometry for cell cycle analysis (PI); assay type: cell-based, human; details: 3 μM, 48 h; for percentage of cells in G0/G1 phase: non-treated 61.36 ± 3.65%
Description: For flow cytometric analysis of DNA content, MCF-7 cells in exponential growth were treated with compound for 48 h. The cells treated with compound were collected, washed twice with PBS, and then fixed with 75% alcohol overnight. Then, the cells were washed with PBS and resuspended in 100 μl of PBS, 200 mg/ml RNase was added for 30 min to eliminate the interference of RNA, and 20 ml/L propidium iodide (PI; Sigma) was added for 30 min. Then, the cells were washed, and the DNA content was detected by a flow cytometer (BD Accuri C6).

MCF-7 cells [7] = experiment: Flow cytometry for cell apoptosis analysis (annexin V-FITC/PI); assay type: cell-based, human; details: 48 h, non-treated 14.50 ± 0.68%
Description: MCF-7 cells (5 × 10^5 cells/ml) were seeded in six-well plates and treated with compounds at different concentrations for 48 h. The cells were then harvested by trypsinization and washed twice with cold PBS. After centrifugation and removal of the supernatants, cells were resuspended in 400 μl of 1 × binding buffer, which was then added to 5 μl of annexin V-FITC and incubated at room temperature for 15 min. After adding 10 μl of PI, the cells were incubated at room temperature for another 15 min in the dark. The stained cells were analyzed by a flow cytometer (BD Accuri C6).

[8] = tested on: A549, MCF-7, HeLa and HepG2 cells; experiment: SRB cytotoxicity assay, four tumor cell types taken together; assay type: cell-based; details: Homo sapiens, 72 h, range over A549, MCF-7, HeLa, read-out: single concentration inhibition on the four tumor cells
Description: as §1, with “HepG2 cells were cultured in minimum essential medium (Eagle) with 2 mM L-glutamine, Earle's BSS, 1.5 g/L sodium bicarbonate, 0.1 mM non-essential amino acids, 1.0 mM sodium pyruvate, and 10% fetal bovine serum. HUVEC cells were cultured in M199 medium containing 2 mM L-glutamine adjusted to contain 1.5 g/L sodium bicarbonate, 4.5 g/L glucose, 10 mM HEPES, 1.0 mM sodium pyruvate, ECGS, and 10% fetal bovine serum. All cells were cultured at 37°C in 5% CO2.” left out
The cell proliferation of adherent cells was determined by sulforhodamine B assay (SRB) (Quan et al., [2009]; Li et al., [2017]). […] OD values were measured for each well with a SPECTRA max 190 Cell microplate reader under 540 nm wavelength. According to the OD value, the cell growth inhibition rate was calculated.

| Compound | melting point | inhibition at 10 µM [1] | IC50 [1] | inhibition at 10 µM [2] | IC50 [2] | inhibition at 10 µM [3] | IC50 [3] | inhibition at 10 µM [4] | IC50 [4] | inhibition at 10 µM [5] | percentage of cells in G0/G1 phase (MCF-7 cells [6]) | apoptotic rate (MCF-7 cells [7]; 3 μM) | apoptotic rate (MCF-7 cells [7]; 10 μM) | percentage of cells in G2/M phase (MCF-7 cells [6]; non-treated 10.06 ± 0.91) | percentage of cells in S phase (MCF-7 cells [6]; non-treated 24.69 ± 6.30%) | apoptotic rate (MCF-7 cells [7]; 1 μM) | inhibition at 10 µM [8] |
| --- | --- | --- | --- | --- | --- | --- | --- | --- | --- | --- | --- | --- | --- | --- | --- | --- | --- |
| CC(C)(C)c1cc2c(O)c(c1)Cc1cc(C(C)(C)C)cc(c1OCC(=O)NCCCCCCN)Cc1cc(C(C)(C)C)cc(c1O)Cc1cc(C(C)(C)C)cc(c1OCC(=O)NCCCCCCN)COC2 [Compound 4D, 7,13,19,25-tetra-tert-butyl-28,30-di-hydroxy-27,29-di-(N-(6-aminohexyl)-aminocarbonylmethoxyl)-2,3-dihomo-3-oxa calix[4] arene] | 123.3 to 125.9 °C | 99% | 0.7 ± 0.1 µM | 99% | 1.8 ± 0.7 µM | 100% | 1.9 ± 0.1 µM | 72% | 2.6 ± 0.2 µM | 90% | 73.56 ± 3.95% | 33.55 ± 0.78% | 61.15 ± 2.76% |  |  |  |  |
| CC(C)(C)c1cc2c(O)c(c1)Cc1cc(C(C)(C)C)cc(c1OCC(=O)NCCCCN)Cc1cc(C(C)(C)C)cc(c1O)Cc1cc(C(C)(C)C)cc(c1OCC(=O)NCCCCN)COC2 [Compound 4C, 7,13,19,25-tetra-tert-butyl-28,30-di-hydroxy-27,29-di-(N-(4-aminobutyl)-aminocarbonylmethoxyl)-2,3-dihomo-3-oxacalix[4] arene] | 129.4 to 131.2 °C | 42% | 3.3 ± 0.7 µM | 78% | 5.4 ± 2.6 µM | 96% | 2.3 ± 0.1 µM | 64% | 5 ± 0.8 µM | 55% |  |  |  |  |  |  |  |
| CC(C)(C)c1cc2c(O)c(c1)Cc1cc(C(C)(C)C)cc(c1OCC(=O)NCCO)Cc1cc(C(C)(C)C)cc(c1O)Cc1cc(C(C)(C)C)cc(c1OCC(=O)NCCO)COC2 [Compound 4A, 7,13,19,25-tetra-tert-butyl-28,30-di-hydroxy-27,29-di-(N-(2-hydroxyethyl)-aminocarbonylmethoxyl)-2,3-dihomo-3-oxacalix[4]arene] | 139.7 to 142.3 °C | 100% | 2 ± 0.5 µM | 100% | 1 ± 0.1 µM | 100% | 0.8 ± 0.2 µM | 86% | 2.7 ± 0.4 µM | 41% | 71.39 ± 11.21% | 15.40 ± 0.13% | 40.74 ± 0.38% | 1.87 ± 2.45% | 20.68 ± 13.12% | 19.63 ± 0.11% | 86 to 100% |
| CC(C)(C)c1cc2c(O)c(c1)Cc1cc(C(C)(C)C)cc3c1OCC(=O)NCCNC(=O)COc1c(cc(C(C)(C)C)cc1Cc1cc(C(C)(C)C)cc(c1O)C3)COC2 [Compound 4E] | 204.8 to 206.3 °C | 60% | 12.4 ± 2.2 µM | 50% |  | 46% |  | 21% |  | 26% |  |  |  |  |  |  |  |

Now from value to compound, other results behind:

| melting point | Compound | inhibition at 10 µM [1] | IC50 [1] | inhibition at 10 µM [2] | IC50 [2] | inhibition at 10 µM [3] | IC50 [3] | inhibition at 10 µM [4] | IC50 [4] | inhibition at 10 µM [5] | percentage of cells in G0/G1 phase (MCF-7 cells [6]) | apoptotic rate (MCF-7 cells [7]; 3 μM) | apoptotic rate (MCF-7 cells [7]; 10 μM) | percentage of cells in G2/M phase (MCF-7 cells [6]; non-treated 10.06 ± 0.91) | percentage of cells in S phase (MCF-7 cells [6]; non-treated 24.69 ± 6.30%) | apoptotic rate (MCF-7 cells [7]; 1 μM) | inhibition at 10 µM [8] |
| --- | --- | --- | --- | --- | --- | --- | --- | --- | --- | --- | --- | --- | --- | --- | --- | --- | --- |
| 183.7 to 186.4 °C | CC(C)(C)c1cc2c(O)c(c1)Cc1cc(C(C)(C)C)cc(c1OCC(=O)NCc1ccccc1)Cc1cc(C(C)(C)C)cc(c1O)Cc1cc(C(C)(C)C)cc(c1OCC(=O)NCc1ccccc1)COC2 [Compound 4N, 7,13,19,25-tetra-tert-butyl-28,30-di-hydroxy-27,29-di-(N-benzyl-aminocarbonylmethoxyl)-2,3-dihomo-3-oxacalix[4] arene] | 64% | 6.8 ± 0.5 µM | 43% |  | 49% |  | 10% |  | 21% |  |  |  |  |  |  |  |
| 133.3 to 135.7 °C | CC(C)NC(=O)COc1c2cc(C(C)(C)C)cc1Cc1cc(C(C)(C)C)cc(c1O)Cc1cc(C(C)(C)C)cc(c1OCC(=O)NC(C)C)Cc1cc(C(C)(C)C)cc(c1O)COC2 [Compound 4I, 7,13,19,25-tetra-tert-butyl-28,30-di-hydroxy-27,29-di-(N-isopropyl-aminocarbonylmethoxyl)-2,3-dihomo-3-oxa calix[4]arene] | 45% |  | 17% |  | 44% |  | 9% |  | 16% |  |  |  |  |  |  |  |
| 145.9 to 148.2 °C | CC(C)(C)c1cc2c(O)c(c1)Cc1cc(C(C)(C)C)cc(c1OCC(=O)NC1CCCC1)Cc1cc(C(C)(C)C)cc(c1O)Cc1cc(C(C)(C)C)cc(c1OCC(=O)NC1CCCC1)COC2 [Compound 4M, 7,13,19,25-tetra-tert-butyl-28,30-di-hydroxy-27,29-di-(N-clopentyl-aminocarbonylmethoxyl)-2,3-dihomo-3-oxacalix[4]arene] | 66% | 10.1 ± 1.8 µM | 29% |  | 52% |  | 12% |  | 14% |  |  |  |  |  |  |  |
